This is an account of results in US20160095897A1 (priority 2013, published 2016).

Like-named read-outs stand apart in the source and are kept apart here.

One test deals with IAV A/PR/8/34 (H1N1). It is filed as in vivo. The conditions noted are these: mice, IAV A/PR/8/34 (H1N1) 40 or 60% lethal doses, pepducin p4pal-10 10 μg.
Another test relates to IAV A/PR/8/34. It is filed as in vivo, mice. The conditions noted are these: lethal dose.

For “N-palmitoyl-SGRRYGHALR-NH2 (HELM PEPTIDE1{[CCCCCCCCCCCCCCCC(=O)[*:2]].S.G.R.R.Y.G.H.A.L.R.[am]}$$$$V2.0; SMILES CCCCCCCCCCCCCCCC(=O)N[C@@H](CO)C(=O)NCC(=O)N[C@@H](CCCNC(=N)N)C(=O)N[C@@H](CCCNC(=N)N)C(=O)N[C@@H](Cc1ccc(O)cc1)C(=O)NCC(=O)N[C@@H](Cc1c[nH]cn1)C(=O)N[C@@H](C)C(=O)N[C@@H](CC(C)C)C(=O)N[C@@H](CCCNC(=N)N)C(N)=O) [pepducin p4pal-10]”, in the test on IAV A/PR/8/34 (H1N1), the death result is “protected mice from weight loss and death”; the weight loss result is listed as “protected mice from weight loss”. In the test with IAV A/PR/8/34 (day 3 post-inoculation, ELISA), the “IL1-β level in BAL” value is reported as “not at day 3”, the “IL-6 level in BAL” value is recorded as “not at day 3” and the “MIP-2 level in BAL” value is given as “not at day 3”. Further, in the test on IAV A/PR/8/34 (day 6 post-inoculation), the “level of total proteins in BAL” value is “significantly reduced”. Moreover, in the test on IAV A/PR/8/34 (day 6 post-inoculation, ELISA), the “IFN-γ level in BAL” value is on record as “significantly reduced”, the “IL1-β level in BAL” value is “significantly reduced”, the “IL-6 level in BAL” value is on record as “significantly reduced” and the “MIP-2 level in BAL” value is “significantly reduced”. Further, in the test on IAV A/PR/8/34 (treated vs not treated), the “KC level in BAL” value is “similar” and the “RANTES level in BAL” value is reported as “similar”.
